How the values were obtained:
[1] = test system: cg1661 (Arsenite efflux pump ACR3 or related permease) mRNA; assay: Microarray gene expression depending on furfural concentration; assay type: cell-based, Corynebacterium glutamicum; details: against wild type in medium not containing furfural
Source text: (§1) DNA Microarray is used as a method for analyzing gene expression depending on the furfural stress.
(§2) Specifically, among genes corresponding to the module classified at http://www.coryneregnet.de/ of entire genes, and genes, whose corresponding protein names contain at least one of transport, permease and pump, genes showing increased expression level at all furfural concentrations are selected, and then, genes showing about 10 folds or more increased expression level at least one concentration are selected. And, among the selected genes, existing genes, which are known to response to stress, are excluded by literature search, and cg0310 (SEQ ID No.: 3), cg1661 (SEQ ID No.: 1), cg3374 (SEQ ID No.: 4) and cg3399 (SEQ ID No.: 5) are selected as the target gene. These are catalase, efflux pump in the cell membrane, oxidoreductase and permease-type genes. Then, information of the target genes selected by microarray, and expression levels of the target genes depending on the furfural concentration in the medium, which are obtained by analyzing gene expression pattern thereof using microarray, are shown in the following Table 2.
(§3) The gene expression levels of the above Table 2 show the relative mRNA expression levels of the target genes of the wild type strain grown in the medium containing the furfural, against the wild type strain grown without stress in the medium not containing the furfural. As a result of analysis, compared with the medium not containing the furfural, the mRNA expression levels of each target gene are increased in the medium containing the furfural, and the mRNA expression levels of the target genes are further increased as the furfural concentration is increased.

[2] = test system: cg3374 (cye1, Putative NADH-dependent flavin oxidoreductase) mRNA; assay: as above; assay type: cell-based, Corynebacterium glutamicum; details: against wild type in medium not containing furfural
Source text: as §1, §2, §3

[3] = test system: cg3399 (Permease of the major facilitator superfamily) mRNA; assay: as above; assay type: cell-based, Corynebacterium glutamicum; details: against wild type in medium not containing furfural
Source text: as §1, §2, §3

[4] = test system: cg0310 (katA, catalase) mRNA; assay: as above; assay type: cell-based, Corynebacterium glutamicum; details: against wild type in medium not containing furfural
Source text: as §1, §2, §3

[5] = test system: Corynebacterium glutamicum ATCC 13032; assay: Growth inhibitory effect of furfural in wild type strain; assay type: cell-based
Protocol: In order to develop a furfural-resistant strain, first of all, Corynebacterium glutamicum is selected as a wild type, and then, growth inhibitory effect of furfural at Corynebacterium glutamicum wild type strain (wild type), which is Corynebacterium glutamicum ATCC 13032, depending on concentration, and concentrations of furfural and furfuryl alcohol in a culture solution depending on cell growth are confirmed.
Specifically, as the culture solution, 2% glucose as a carbon source is added to a minimal medium, CGXII medium, and furfural of 6.5 mM, 13 mM and 20 mM are added thereto, respectively, to compare growth speed with the case not adding the furfural. At this time, the composition of the CGXII medium is 20 g/L (NH4)2504, 5 g/L Urea, 1 g/L KH2PO4, 1 g/L K2HPO4, 0.25 g/L MgSO4.7H2O, 42 g/L MOPS, 10 mg/L CaCl2, 0.2 mg/L Biotin, 0.03 g/L Protecatechuic acid, Trace metal (10 mg/L FeSO4.7H2O, 10 mg/L MnSO4.H2O, 1 mg/L ZnSO4.7H2O, 0.2 mg/L CuSO4.7H2O, 0.02 mg/L NiCl2.6H2O). Culture is conducted at 30° C. after inoculating the cells (initial OD600=1) into the culture solution 50 mL in a 250 mL Erlenmeyer flask.

[6] = test system: cg1310 (rolM, Maleylacetate reductase) mRNA; assay: Microarray gene expression depending on furfural concentration; assay type: cell-based, Corynebacterium glutamicum; details: against wild type in medium not containing furfural
Source text: As a result, among the genes, which are expected to have similarity, cg1310 (SEQ ID No.: 2) showing increased expression at microarray is selected as the target gene. And, information about the selected target gene, and expression level of the target gene depending on the furfural concentration in the medium, which is obtained by analyzing gene expression pattern thereof depending on the furfural concentration using microarray, are shown in the following Table 1.
As a result of analysis, compared with the medium not containing the furfural, the mRNA expression level of the target gene is increased in the medium containing the furfural, and the mRNA expression level of the target gene is further increased when the furfural concentration is increased from 6.5 mM to 13 mM.
as §1

[7] = Furfural Conc. in Medium: 6.5 mM
[8] = Furfural Conc. in Medium: 13 mM
[9] = Furfural Conc. in Medium: 20 mM

Structure (SMILES): O=Cc1ccco1 [furfural]
- Gene Expression Level (relative mRNA) cg1661 [1, 7]: 7.240
- Gene Expression Level (relative mRNA) cg1661 [1, 8]: 3.071
- Gene Expression Level (relative mRNA) cg1661 [1, 9]: 13.186
- Gene Expression Level (relative mRNA) cg3374 [2, 7]: 1.461
- Gene Expression Level (relative mRNA) cg3374 [2, 8]: 3.219
- Gene Expression Level (relative mRNA) cg3374 [2, 9]: 29.016
- Gene Expression Level (relative mRNA) cg3399 [3, 7]: 4.485
- Gene Expression Level (relative mRNA) cg3399 [3, 8]: 6.529
- Gene Expression Level (relative mRNA) cg3399 [3, 9]: 15.694
- Gene Expression Level (relative mRNA) cg0310 [4, 7]: 3.219
- Gene Expression Level (relative mRNA) cg0310 [4, 8]: 3.443
- Gene Expression Level (relative mRNA) cg0310 [4, 9]: 10.956
- growth reduction compared with the medium not containing the furfural ([5]; 6.5 mM furfural, CGXII medium with 2% glucose, 30° C.): ≥ 50%
- growth speed of the strain ([5]; furfural 6.5, 13 and 20 mM in CGXII medium): becomes slow as the furfural concentration in the medium is increased
- Gene Expression Level (relative mRNA) cg1310 [6, 7]: 1.476
- Gene Expression Level (relative mRNA) cg1310 [6, 8]: 2.872
- Gene Expression Level (relative mRNA) cg1310 [6, 9]: 2.183
